Strand notation (5' to 3'): a small letter for the sugar, then the base; units joined by * are phosphorothioate-linked, units joined directly phosphodiester-linked; [ ] holds rarer units or linkages, { } end groups; capitals alone tell only the bases. e = 2'-O-(2-methoxyethyl) (MOE); [5mC] = 5-methylcytosine; d = 2'-deoxy (DNA)
Assays:
human Factor 7 mRNA = test: Dose-dependent antisense inhibition of human Factor 7 in HepB3 cells, electroporation; assay type: cell-based
Procedure, shortened: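 HepB3 cells, 20,000/well, electroporated with gapmers at 3.125–100 μM; about 16 h treatment. Factor 7 mRNA by qRT-PCR with primer probe set RTS 2927, normalized to RIBOGREEN total RNA; percent inhibition versus untreated cells.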

murine Factor 7 mRNA [1] = test: Liver Factor 7 mRNA in the FeCl3 induced venous thrombosis model; assay type: in vivo, mouse; conditions: for % inhibition of Factor 7 mRNA: liver; for % inhibition of Factor 7 mRNA, relative to PBS control: BALB/c mice liver, two days after last dose
Protocol: Three groups of BALB/c mice were injected with 25 mg/kg, 37.5 mg/kg, or 50 mg/kg of ISIS 403102, administered subcutaneously twice a week for 3 weeks. Two control groups of BALB/c mice were treated with PBS, administered subcutaneously twice a week for 3 weeks. Thrombus formation was induced with FeCl3 in half of the mice while the rest of the mice were assayed for tail bleeding. Two days after receiving the last dose of ISIS 403102 or PBS, mice were anesthetized with 150 mg/kg ketamine mixed with 10 mg/kg xylazine administered by intraperitoneal injection. Thrombus formation was induced with FeCl3 in all groups of the VT mice except the first control group.
In mice undergoing FeCl3 treatment, thrombus formation was induced by applying a piece of filter paper (2×4 mm) pre-saturated with 10% FeCl3 solution directly on the vena cava. After 3 minutes of exposure, the filter paper was removed. Thirty minutes after the filter paper application, a fixed length of the vein containing the thrombus was dissected out for platelet analysis. Liver was collected for RNA analysis.
RNA was extracted from liver tissue for real-time RT-PCR analysis of Factor 7. Results are presented as percent inhibition of Factor 7, relative to PBS control.
ISIS 403102 and warfarin (Coumadin®) were evaluated in BALB/c mice. Four groups of BALB/c mice were treated with 5 mg/kg, 10 mg/kg, 20 mg/kg, or 40 mg/kg of ISIS 403102, administered subcutaneously twice a week for 3 weeks. Two days after receiving the last dose of ISIS 403102, mice were anesthetized with 150 mg/kg ketamine mixed with 10 mg/kg xylazine administered by intraperitoneal injection. A fifth group of BALB/c mice was treated with 3 mg/kg of warfarin, administered intraperioneally daily for 6 days. Four hours after the last dose of warfarin, mice were sacrificed. A control group of BALB/c mice were treated with PBS, administered subcutaneously twice a week for 3 weeks. Two days after the last dose of PBS, mice were anesthetized with 150 mg/kg ketamine mixed with 10 mg/kg xylazine administered by intraperitoneal injection. Thrombus formation was induced with FeCl3 in groups of mice except the first control group.

murine Factor 7 mRNA [2] = test: Multiple dose pharmacokinetic assay: liver Factor 7 mRNA in mice; assay type: in vivo, mouse; conditions: for % Inhibition: liver Factor 7 mRNA, mice, relative to PBS control
Protocol: The duration of action of multiple doses of ISIS 403102 on antisense inhibition of murine Factor 7 and clotting time was evaluated. In a first group of mice, 25 mg/kg of ISIS 403102 was injected subcutaneously as a single dose. Mice from the first group were sacrificed on days 1 and 3 after the single dose. In a second group of mice, 25 mg/kg of ISIS 403102 was administered subcutaneously twice a week for 1 week. Mice from the second group were sacrificed on day 3 after the last dose of ISIS 403102 was administered. In a third group of mice, 25 mg/kg of ISIS 403102 was administered subcutaneously twice a week for 2 weeks. Mice from the third group were sacrificed on day 3 after the last dose of ISIS 403102 was administered. In a fourth group of mice, 25 mg/kg of ISIS 403102 was administered subcutaneously twice a week for 3 weeks. Mice from the fourth group were sacrificed on days 2, 7, 14, 28, 42, and 56 after the last dose of ISIS 403102 was administered. A control group of 3 mice was injected with PBS in a single dose. Mice from the control group were sacrificed 1 day later. Mice in all groups were sacrificed by cervical dislocation following anesthesia with 150 mg/kg ketamine mixed with 10 mg/kg xylazine administered by intraperitoneal injection. Liver was harvested for RNA analysis and plasma was collected for clotting analysis (PT and aPTT) for mice in all groups.
RNA was extracted from liver tissue for quantitative RT-PCR analysis of Factor 7. Results are presented as percent inhibition of Factor 7, relative to PBS control. […] Inhibition increased through day 3 in the single dose treatment group. […] Inhibition increased through day 3 in the 2 dose treatment group.

[3] = 3.125 μM, approx. 16 hours (Table 15, Example 7)
[4] = 3.125 μM, approx. 16 hours (Table 16, Example 8 confirmation)
[5] = 6.25 μM, approx. 16 hours (Table 15, Example 7)
[6] = 6.25 μM, approx. 16 hours (Table 16, Example 8 confirmation)
[7] = 12.5 μM, approx. 16 hours (Table 15, Example 7)
[8] = 12.5 μM, approx. 16 hours (Table 16, Example 8 confirmation)
[9] = 25 μM, approx. 16 hours (Table 15, Example 7)
[10] = 25 μM, approx. 16 hours (Table 16, Example 8 confirmation)
[11] = 50 μM, approx. 16 hours (Table 15, Example 7)
[12] = 50 μM, approx. 16 hours (Table 16, Example 8 confirmation)
[13] = 100 μM, approx. 16 hours (Table 15, Example 7)
[14] = 100 μM, approx. 16 hours (Table 16, Example 8 confirmation)

Substance: 407935 (antisense eA*eT*eG*e[5mC]*eA*dT*dG*dG*dT*dG*dA*dT*dG*d[5mC]*dT*eT*e[5mC]*eT*eG*eA) [compound 407935]
- percent inhibition of Factor 7 mRNA, relative to untreated control cells (human Factor 7 mRNA; [3]): 37%
- percent inhibition of Factor 7 mRNA, relative to untreated control cells (human Factor 7 mRNA; [4]): 63%
- percent inhibition of Factor 7 mRNA, relative to untreated control cells (human Factor 7 mRNA; [5]): 47%
- percent inhibition of Factor 7 mRNA, relative to untreated control cells (human Factor 7 mRNA; [6]): 79%
- percent inhibition of Factor 7 mRNA, relative to untreated control cells (human Factor 7 mRNA; [7]): 67%
- percent inhibition of Factor 7 mRNA, relative to untreated control cells (human Factor 7 mRNA; [8]): 84%
- percent inhibition of Factor 7 mRNA, relative to untreated control cells (human Factor 7 mRNA; [9]): 73%
- percent inhibition of Factor 7 mRNA, relative to untreated control cells (human Factor 7 mRNA; [10]): 90%
- percent inhibition of Factor 7 mRNA, relative to untreated control cells (human Factor 7 mRNA; [11]): 80%
- percent inhibition of Factor 7 mRNA, relative to untreated control cells (human Factor 7 mRNA; [12]): 90%
- percent inhibition of Factor 7 mRNA, relative to untreated control cells (human Factor 7 mRNA; [13]): 87%
- percent inhibition of Factor 7 mRNA, relative to untreated control cells (human Factor 7 mRNA; [14]): 91%

Substance: 407939 (antisense eT*eG*e[5mC]*eA*eG*d[5mC]*d[5mC]*d[5mC]*dG*dG*d[5mC]*dA*d[5mC]*d[5mC]*d[5mC]*eA*eG*e[5mC]*eG*eA) [compound 407939]
- percent inhibition of Factor 7 mRNA, relative to untreated control cells (human Factor 7 mRNA; [3]): 18%
- percent inhibition of Factor 7 mRNA, relative to untreated control cells (human Factor 7 mRNA; [4]): 35%
- percent inhibition of Factor 7 mRNA, relative to untreated control cells (human Factor 7 mRNA; [5]): 28%
- percent inhibition of Factor 7 mRNA, relative to untreated control cells (human Factor 7 mRNA; [6]): 60%
- percent inhibition of Factor 7 mRNA, relative to untreated control cells (human Factor 7 mRNA; [7]): 42%
- percent inhibition of Factor 7 mRNA, relative to untreated control cells (human Factor 7 mRNA; [8]): 60%
- percent inhibition of Factor 7 mRNA, relative to untreated control cells (human Factor 7 mRNA; [9]): 56%
- percent inhibition of Factor 7 mRNA, relative to untreated control cells (human Factor 7 mRNA; [10]): 73%
- percent inhibition of Factor 7 mRNA, relative to untreated control cells (human Factor 7 mRNA; [11]): 68%
- percent inhibition of Factor 7 mRNA, relative to untreated control cells (human Factor 7 mRNA; [12]): 81%
- percent inhibition of Factor 7 mRNA, relative to untreated control cells (human Factor 7 mRNA; [13]): 82%
- percent inhibition of Factor 7 mRNA, relative to untreated control cells (human Factor 7 mRNA; [14]): 83%

Substance: CCATAGAACAGCTTCACAGG (sugars from the 5' end e5 d10 e5, backbone and methylation of C not given here) [ISIS 403102]
- % inhibition of Factor 7 mRNA (murine Factor 7 mRNA [1]; Example 14, 25 mg/kg subcutaneously twice a week for 3 weeks): 24%
- % inhibition of Factor 7 mRNA (murine Factor 7 mRNA [1]; Example 14, 37.5 mg/kg subcutaneously twice a week for 3 weeks): 74%
- % inhibition of Factor 7 mRNA (murine Factor 7 mRNA [1]; Example 14, 50 mg/kg subcutaneously twice a week for 3 weeks): 69%
- reduction of Factor 7 mRNA in comparison to the PBS control (murine Factor 7 mRNA [1]; Example 14, 25, 37.5, 50 mg/kg twice a week for 3 weeks): significant dose-dependent reduction of Factor 7 mRNA
- reduction of Factor 7 mRNA in comparison to the PBS control (murine Factor 7 mRNA [1]; Example 15, 5, 10, 20, 40 mg/kg subcutaneously twice a week for 3 weeks): significant dose-dependent reduction of Factor 7 mRNA
- % inhibition of Factor 7 mRNA, relative to PBS control (murine Factor 7 mRNA [1]; Example 15, 5 mg/kg s.c. twice a week for 3 weeks): 59%
- % inhibition of Factor 7 mRNA, relative to PBS control (murine Factor 7 mRNA [1]; Example 15, 10 mg/kg s.c. twice a week for 3 weeks): 84%
- % inhibition of Factor 7 mRNA, relative to PBS control (murine Factor 7 mRNA [1]; Example 15, 20 mg/kg s.c. twice a week for 3 weeks): 95%
- % inhibition of Factor 7 mRNA, relative to PBS control (murine Factor 7 mRNA [1]; Example 15, 40 mg/kg s.c. twice a week for 3 weeks): 99%
- Factor 7 inhibition (murine Factor 7 mRNA [2]; 6 doses of 25 mg/kg, days 14, 28, 42 and 56 after last dose): declined progressively
- % Inhibition (murine Factor 7 mRNA [2]; 25 mg/kg subcutaneously twice a week, 2 doses, 3 days after last dose): 86%
- % Inhibition (murine Factor 7 mRNA [2]; 25 mg/kg subcutaneously twice a week, 4 doses, 3 days after last dose): 91%
- % Inhibition (murine Factor 7 mRNA [2]; 25 mg/kg subcutaneously twice a week, 6 doses, 2 days after last dose): 83%
- % Inhibition (murine Factor 7 mRNA [2]; 25 mg/kg subcutaneously twice a week, 6 doses, 7 days after last dose): 88%
- % Inhibition (murine Factor 7 mRNA [2]; 25 mg/kg subcutaneously twice a week, 6 doses, 14 days after last dose): 64%
- % Inhibition (murine Factor 7 mRNA [2]; 25 mg/kg subcutaneously twice a week, 6 doses, 28 days after last dose): 33%
- % Inhibition (murine Factor 7 mRNA [2]; 25 mg/kg subcutaneously twice a week, 6 doses, 42 days after last dose): 5%
- % Inhibition (murine Factor 7 mRNA [2]; 25 mg/kg subcutaneously twice a week, 6 doses, 56 days after last dose): 11%
- % Inhibition (murine Factor 7 mRNA [2]; 25 mg/kg subcutaneously, 1 dose, 1 day after last dose): 44%
- % Inhibition (murine Factor 7 mRNA [2]; 25 mg/kg subcutaneously, 1 dose, 3 days after last dose): 74%
- inhibition of Factor 7 mRNA (murine Factor 7 mRNA [2]; single dose 25 mg/kg subcutaneously): inhibition of Factor 7 as early as day 1

— patent publication US9029337B2, “Modulation of factor 7 expression” (Isis Pharmaceuticals, Inc., priority 2007, dated 2015)
